# Source: USRE39420E1, “1,2-Diphenylpyrrole derivatives, their preparation and their therapeutic uses” (Sankyo Company, Limited, priority 1996, dated 2006)
# Legend:
# [1] = molecular target: T1, Cyclooxygenase-1 from Ram Seminal Vesicle Microsomes (RSVM) (Ovis aries, UniProt P05979); assay: Inhibitory activity on cyclooxygenase-1 from ram seminal vesicle microsomes (PGE2 ELISA); assay type: biochemical; conditions: PGE2 formation, read-out: Inhibitory Effect on COX-1[IC50(μM)]
# T1 construct: ram seminal vesicles were homogenised by a blender; from tissue; host or cells: ram seminal vesicles (microsomes)
# T1 sequence (P05979 25-600): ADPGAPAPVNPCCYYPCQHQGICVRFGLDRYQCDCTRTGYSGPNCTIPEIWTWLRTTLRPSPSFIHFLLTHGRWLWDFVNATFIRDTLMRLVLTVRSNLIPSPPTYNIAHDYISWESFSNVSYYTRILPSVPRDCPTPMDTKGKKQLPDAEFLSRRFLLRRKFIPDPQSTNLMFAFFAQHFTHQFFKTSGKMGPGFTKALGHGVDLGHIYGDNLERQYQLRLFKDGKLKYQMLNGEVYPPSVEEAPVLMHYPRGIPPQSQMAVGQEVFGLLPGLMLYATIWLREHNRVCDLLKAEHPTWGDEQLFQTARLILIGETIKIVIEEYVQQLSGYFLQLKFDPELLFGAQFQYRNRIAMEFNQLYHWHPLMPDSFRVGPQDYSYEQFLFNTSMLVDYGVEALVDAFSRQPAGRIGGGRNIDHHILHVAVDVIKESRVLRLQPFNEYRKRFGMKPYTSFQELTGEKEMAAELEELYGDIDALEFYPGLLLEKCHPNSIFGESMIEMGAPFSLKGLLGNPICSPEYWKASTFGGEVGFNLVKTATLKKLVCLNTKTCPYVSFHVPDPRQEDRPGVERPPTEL
# Experimental: (§1) In order to prepare cyclooxygenase-1 (COX-1) microsomes, ram seminal vesicles were homogenised by a blender. To prepare cyclooxygenase-2 (COX-2) microsomes, an expression vector which contains the human COX-2 gene was introduced into COS cells. The cells were homogenised by sonication after 66 hours cultivation. Microsomes were then prepared in accordance with conventional methods. Enzyme activity was assayed as follows. The assay mixture contained 10 μl of COX-1 or COX-2 microsomes (5 to 15 μg), 2 μl of sample dissolved in dimethyl sulfoxide, 50 μl of 200 mM Tris (pH 7.6), 10 μl of 20 mM reduced glutathione, 10 μl of 10 mM epinephrine, and 15.5 μl of distilled water. After preincubation at 37° C. for 15 minutes, 2.5 μl of 10 μM arachidonic acid (dissolved in ethanol) were then added to the mixture (final volume of 100 μl) and allowed to react at 37° C. for 30 minutes. The final dimethyl sulfoxide and ethanol concentrations were 2% and 2.5%, respectively. To the reaction mixture were then added 15 μl of ice-cooled 0.2M HCl to stop the reaction, and the mixture was cooled at 4° C. for 5 minutes. 15 μl of a 0.2M aqueous solution of sodium hydroxide were then added to the reaction mixture to neutralise the pH. The amount of PGE2, in the reaction mixture was measured using a commercially available ELISA kit (Cayman). IC50 was calculated from the regression line determined by the inhibition rates of PGE2 formation and the concentrations of the compound.
# [2] = molecular target: T2, Human Recombinant Cyclooxygenase-2 (Homo sapiens, UniProt P35354); assay: Inhibitory activity on human recombinant cyclooxygenase-2 microsomes from COS cells (PGE2 ELISA); assay type: biochemical; conditions: for IC50: human recombinant COX-2 microsomes, PGE2 formation, read-out: Inhibitory Effect on COX-2 [IC50 (μM)]
# T2 construct: made in house; host or cells: COS cells (transient expression; microsomes prepared after 66 hours)
# T2 sequence (P35354 18-604): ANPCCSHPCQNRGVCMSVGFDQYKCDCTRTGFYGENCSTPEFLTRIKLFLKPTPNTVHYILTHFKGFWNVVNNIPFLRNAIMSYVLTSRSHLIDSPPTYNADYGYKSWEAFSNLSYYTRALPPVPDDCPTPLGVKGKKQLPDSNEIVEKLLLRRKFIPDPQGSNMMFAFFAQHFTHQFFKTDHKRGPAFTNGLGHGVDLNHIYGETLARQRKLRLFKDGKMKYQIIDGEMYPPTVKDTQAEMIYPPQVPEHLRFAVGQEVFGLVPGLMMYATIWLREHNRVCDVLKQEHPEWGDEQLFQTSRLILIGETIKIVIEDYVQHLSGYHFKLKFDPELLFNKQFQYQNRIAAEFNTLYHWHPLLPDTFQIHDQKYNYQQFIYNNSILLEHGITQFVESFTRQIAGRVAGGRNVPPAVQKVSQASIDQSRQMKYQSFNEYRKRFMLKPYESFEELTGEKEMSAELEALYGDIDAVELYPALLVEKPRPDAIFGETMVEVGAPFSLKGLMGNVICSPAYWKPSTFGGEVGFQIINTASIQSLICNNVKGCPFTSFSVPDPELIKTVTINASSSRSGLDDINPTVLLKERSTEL
# Experimental: In order to prepare cyclooxygenase-1 (COX-1) microsomes, ram seminal vesicles were homogenised by a blender. To prepare cyclooxygenase-2 (COX-2) microsomes, an expression vector which contains the human COX-2 gene was introduced into COS cells. The cells were homogenised by sonication after 66 hours cultivation. Microsomes were then prepared in accordance with conventional methods.
# Enzyme activity was assayed as follows.
# as §1, with “The” for “In order to prepare cyclooxygenase-1 (COX-1) microsomes, ram seminal vesicles were homogenised by a blender. To prepare cyclooxygenase-2 (COX-2) microsomes, an expression vector which contains the human COX-2 gene was introduced into COS cells. The cells were homogenised by sonication after 66 hours cultivation. Microsomes were then prepared in accordance with conventional methods. Enzyme activity was assayed as follows. The”
# [3] = test system: Carrageenan-induced Paw Edema in rats; assay: Carrageenan-induced paw edema test; assay type: in vivo, Wistar-Imamichi rats; conditions: Rattus norvegicus, oral, 3 hours after carrageenan, read-out: Inhibition Rate (%)
# Procedure, shortened: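 Male Wistar-Imamichi rats (6 weeks, 110-120 g), fasted 16 h, dosed orally 30 min before subplantar injection of 1% carrageenan into right hind paw. Paw volume measured by plethysmometer before dosing and 3 h after carrageenan; edema intensity = (volume at 3 h/volume before injection) − 1.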
SMILES,IC50 [1],IC50 [2],inhibition in vivo at 50 mg/kg [3],Selectivity (COX-1/COX-2) ([2]; ratio of IC50 COX-1/COX-2)
"Cc1ccc(-c2ccccc2)n1-c1ccc(S(N)(=O)=O)cc1 [Compound A, 5-methyl-2-phenyl-1-(4-sulfamoylphenyl)pyrrole, reference compound]",> 100 µM,> 100 µM,14%,–
"COc1ccc(-c2cc(C)cn2-c2ccc(S(N)(=O)=O)cc2)cc1 [Example 52, 2-(4-Methoxyphenyl)-4-methyl-1-(4-sulfamoylphenyl)pyrrole]",> 100 µM,0.016 µM,65%,>6250
